This note sets out measurements from ChEMBL document CHEMBL1144833, “Synthesis and evaluation of novel aromatic substrates and competitive inhibitors of GABA aminotransferase” (Bioorg Med Chem Lett, 2008).

Test [1] concerns the target T1, 4-aminobutyrate aminotransferase, mitochondrial (Homo sapiens, UniProt P80404). In words: Activity at GABA-AT assessed as substrate activity relative to gamma amino butyric acid. Further details: concentration or dose not given beside the values.
In test [2] the target is T1, 4-aminobutyrate aminotransferase, mitochondrial. In words: Inhibition of GABA-AT.

As a reminder, the IC50 is the concentration needed to halve the response being measured.

T1 sequence (P80404 whole entry): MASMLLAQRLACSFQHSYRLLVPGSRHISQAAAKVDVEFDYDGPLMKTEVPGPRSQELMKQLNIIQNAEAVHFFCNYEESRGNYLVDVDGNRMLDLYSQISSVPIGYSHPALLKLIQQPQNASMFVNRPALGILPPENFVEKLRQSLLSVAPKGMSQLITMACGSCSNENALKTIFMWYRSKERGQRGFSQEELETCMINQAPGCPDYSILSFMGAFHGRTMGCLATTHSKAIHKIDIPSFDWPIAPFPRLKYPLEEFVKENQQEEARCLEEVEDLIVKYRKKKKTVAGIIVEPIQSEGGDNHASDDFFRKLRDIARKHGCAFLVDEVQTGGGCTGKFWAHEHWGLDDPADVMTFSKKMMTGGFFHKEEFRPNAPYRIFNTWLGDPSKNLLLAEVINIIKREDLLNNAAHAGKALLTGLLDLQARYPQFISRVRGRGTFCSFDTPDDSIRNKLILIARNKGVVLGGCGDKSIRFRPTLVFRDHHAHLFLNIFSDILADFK

In the case of `NCc1ccccc1C(=O)O`, in test [1], the Relative stimulatory activity worked out at 0%. Also, in test [2], the concentration for half-maximal inhibition (IC50) was over 5 mM.

As for `Nc1ccccc1C(=O)O` [ANTHRANILIC ACID], in test [1], the Relative stimulatory activity was determined as 0%. The IC50 in test [2] was over 5 mM.

As to `NCc1cccc(CC(=O)O)c1`, the Relative stimulatory activity in test [1] was 0.78%. This compound showed an IC50 in test [2] of over 5 mM.

For `NCc1ccccc1CC(=O)O`, the Relative stimulatory activity in test [1] is 5.65%. Moreover, the half-inhibitory concentration (IC50) in test [2] was over 5 mM.

On to `Nc1cccc(C(=O)O)c1` [3-AMINOBENZOIC ACID], for which the Relative stimulatory activity in test [1] amounted to 0%. Further, the IC50 in test [2] is over 5 mM.

Regarding `Nc1cccc(CC(=O)O)c1`, in test [1], the Relative stimulatory activity was 0%. This compound also showed an IC50 in test [2] of over 5 mM.

In the case of `NCc1cccc(C(=O)O)c1`, in test [1], the Relative stimulatory activity was determined as 3.42%. Besides, in test [2], the half-maximal inhibitory concentration (IC50) was over 5 mM.
